In patent publication US20260076948A1, “TREATMENT OF DIABETIC RETINOPATHY USING ENDOTHELIN RECEPTOR ANTAGONISTS” (Perfuse Therapeutics, Inc., priority 2019, published 2026):
“Also recorded” adds a separate entry of the source.

Tests used:
[1] = tested on: Morrison's rat model of glaucoma (elevated IOP); experiment: Morrison's rat model of glaucoma (RGC counts, PERG); format: in vivo, Brown Norway rats; conditions: topical eye drops 100 μg per dose, five days a week, four weeks
Description: Adult male and female retired breeder Brown Norway rats (approximate age groups of 8 to 11 months) were obtained from Envigo (Indianapolis, IN). Baseline IOP measurements and pattern electroretinogram (PERG) amplitudes were collected prior to the surgery for elevation of IOP (to ensure that the IOP and PERG amplitudes were in the expected range of values). IOP was elevated in one eye (left eye) of the rats, while the corresponding right eyes served as contralateral controls. The Morrison method to elevate IOP in rats was carried out by injection of 50 μL. of hypertonic saline through the episcleral veins to sclerose the trabecular meshwork. IOP was measured twice a week throughout the entire duration of the experiment. […] After detecting an elevation of IOP for two consecutive days, topical administration of eye drops (20 μL (100 μg) per dose of the tested compounds in the IOP elevated eye) was commenced and carried out for five days a week for a total of four weeks. In the 4th week of treatment, PERG analysis was carried out and rats were sacrificed by an overdose of pentobarbital (Fatal-Plus). Aqueous humor was collected from the rat eyes, frozen and shipped for analysis. Retinal flat mounts were prepared, immunostained with the RGC marker, Brn3a antibody and surviving RGCs were counted in two eccentricities (central and peripheral).
For this study, the Morrison's model was used to induce ocular hypertension in adult male retired breeder Brown Norway rats as previously described by Morrison et al., (Morrison J C, Moore C G, Deppmeier L M, Gold B G, Meshul C K, Johnson E C. A rat model of chronic pressure-induced optic nerve damage. Exp Eye Res. 1997; 64(1):85-96).
The immunostained retinal flat mounts were obtained to measure the retinal ganglion cell (RGC) counts. To obtain immunostained retinal flat mounts, the animals were euthanized after the treatments and then their eyes were enucleated. The eye cups were fixed overnight at 4° C. in 4% paraformaldehyde (PFA) and retinal flat mounts were prepared for collecting images. The retinal ganglion cell (RGC) counting was conducted using the images of immunostained retinal flat mounts. The images were uploaded to ImageJ, a photo editor designed for biology research (Rasband, 1997-2018) and the labeled retinal ganglion cells were counted manually in two eccentricities (central and peripheral).
Pattern ERG (PERG) was used to assess the RGC function. […] Briefly, PERG signals were acquired from a DTL-plus electrode placed on the lower part of the corneal surface and the PERG waves were analyzed using the EMWIN software (LKC). The difference between the amplitude of the major positive (P1) and negative (N2) waves were calculated to decipher the PERG amplitude.

[2] = Solubility (pH 2, pH 7, ethyl acetate); format: physicochemical
Description: (§1) In the above table, the physicochemical data, e.g., solubility, were obtained following standard protocols known in the field (see, e.g., Reis et al., Mini Rev Med Chem., 2010, 10(11):1071-6; Avdeef et al., Expert Opin Drug Metab Toxicol., 2005, 1(2):325-42; Bharate et al., Comb Chem High Throughput Screen., 2016, 19(6):461-9; and Jain et al., J Pharm Biomed Anal., 2013, 86:11-35.); and the biochemical data, i.e., potency for ETA/ETB, were obtained following the protocols known in the field (see, e.g., Kirkby et al., Br J Pharmacol., 2008, 153(6):1105-19; and Maguire et al., Br J Pharmacol., 2014, 171(24):5555-72.).

Stability in solid state = format: physicochemical; conditions: 2 h@125° C.
Description: as §1

ETA/ETB receptor = conditions: background statement; cited from earlier work
ETA = biological target: T1, ETA (Homo sapiens, UniProt P25101); experiment: Functional potency for ETA receptor; format: biochemical
T1 sequence (P25101 21-427): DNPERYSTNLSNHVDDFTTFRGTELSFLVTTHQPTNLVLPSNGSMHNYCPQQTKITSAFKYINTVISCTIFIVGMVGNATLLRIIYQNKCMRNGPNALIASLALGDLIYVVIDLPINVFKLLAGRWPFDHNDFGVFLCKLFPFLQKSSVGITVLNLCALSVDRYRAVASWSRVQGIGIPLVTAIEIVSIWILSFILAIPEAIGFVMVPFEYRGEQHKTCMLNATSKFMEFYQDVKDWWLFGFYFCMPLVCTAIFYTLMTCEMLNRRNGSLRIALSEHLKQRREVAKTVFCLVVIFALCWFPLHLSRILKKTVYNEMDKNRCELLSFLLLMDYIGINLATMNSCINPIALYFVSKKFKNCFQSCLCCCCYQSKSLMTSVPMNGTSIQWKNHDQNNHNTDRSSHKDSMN
Description: as §1

[3] = Pharmacokinetics after topical or oral administration in the rat; format: in vivo, Brown Norway rats
Method: After the administrations, the animals (N=2) were euthanized at different time points (e.g. 4 and 8 hours) and tissues were collected for analysis. List of tissues collected include plasma, retina/retinal pigment epithelium (RPE)/choroid, vitreous humor and aqueous humor.

Permeability (PAMPA) = format: in vitro ADME; conditions: PAMPA log Pe and PSA
Description: as §1

In the case of `CCCCCS(=O)(=O)N(CCC)CCN1C[C@H](c2ccc3c(c2)OCO3)[C@@H](C(=O)O)[C@@H]1c1ccc(OC)c(F)c1` [A-182086, (2R,3R,4S)-4-(2H-1,3-benzodioxol-5-yl)-2-(3-fluoro-4-methoxyphenyl)-1-[2-(N-propylpentane-1-sulfonamido)ethyl]pyrrolidine-3-carboxylic acid], the “Pattern electroretinogram (PERG) changes, RGC function” value [1] is reported as “maintained RGC function”, the “Retinal ganglion cell (RGC) counts in the peripheral retina” value [1] is reported as “prevented RGC loss” and the “Solubility in Ethyl Acetate, rating in words” value ([2]; ethyl acetate) is reported as “Good”. The “Solubility at pH 2, comparison in words” value ([2]; pH 2) was “superior to that of Edonentan”, the “Stability in Solid State, in words” value (Stability in solid state) was “unstable” and the “Stability in Solid State, remaining” value (Stability in solid state) was “about 87% remaining/”. The “Endothelin receptor antagonism, description in words” value (ETA/ETB receptor) was “potent dual ETA/ETB receptor antagonist”, the “Functional potency for ETA and ETB receptors, rating in words” value (ETA) was “High potency” and the “Specificity ETA versus ETB, rating in words” value (ETA; ETA vs ETB) was “Low specificity”. The “Ocular exposure after topical administration (retina/RPE/choroid, aqueous humor, vitreous humor)” value ([3]; eye drop 100 μg, 4 and 8 hours) was “detected; also recorded: permeate through cornea/sclera and achieve retina exposure”, the “Detection in the retina/RPE/choroid after oral administration” value ([3]; oral, 50 mg/kg as printed) was “detectable” and the “Permeability, rating in words” value (Permeability (PAMPA)) was “Mid-High”.
